In patent US20230090868A1, “ANTI-CD30 ANTIBODY-DRUG CONJUGATES AND THEIR USE FOR THE TREATMENT OF NON-HODGKIN LYMPHOMA” (Seagen Inc., priority 2020, published 2023):
Like-named read-outs stand apart in the source and are kept apart here.

Tests used:
R/R DLBCL = conditions: cited from earlier work
[1] = Phase I trial dose-escalation phase: maximum tolerated dose (MTD) and dose-limiting toxicities; assay type: in vivo, human; conditions: lenalidomide in combination with BV; by mouth Days 1-21 of each 21-day cycle; rel/ref DLBCL patients
Text: The maximum tolerated dose (MTh) was defined as the dose level immediately below the dose level at which 2 patients of a cohort (of 2 to 6 patients) experienced dose-limiting toxicity during the first cycle. Dose escalations proceeded until the MTD was reached.
Hematologic dose limiting toxicity (DLT) was defined as any of the following that occured during the first cycle that were attributed as possibly, probably, or definitely related to the study treatment: • Grade 4 neutropenia >7 day duration • Grade 4 infection with grade 3 or 4 neutropenia (life-threatening sepsis) • Grade 4 thrombocytopenia associated with life-threatening bleeding or requiring more than 1 transfusion • Treatment delay >14 days due to hematologic toxicity
Non-hematologic DLT was defined as any possibly, probably, or definitely related grade 3 or grade 4 non-hematologic toxicity that occured during the first cycle with the following specific exceptions: • Grade 3 or 4 nausea, vomiting, or anorexia that returns to Grade 1 prior to the start of Cycle 2 • Grade 3 metabolic abnormalities (e.g., hyperglycemia) • Grade 3 fatigue
Dose escalations proceeded as follows after the occurrence of dose-limiting toxicity (DLT):
Dose escalation occurred after all patients in the cohort completed the first cycle according to the following scheme: […]

[2] = single 25 mg dose with a high-fat meal, healthy subjects; cited from earlier work
P-gp [3] = target: T1, P-gp (Homo sapiens, UniProt P08183); conditions: in vitro; cited from earlier work
[4] = cited from earlier work
P-gp [5] = target: T1, P-gp; conditions: controlled studies; cited from earlier work
[6] = system: xenograft models of Hodgkin disease; conditions: SCID mouse xenograft models of Hodgkin disease; cited from earlier work
CD30+ cell lines = conditions: in vitro; cited from earlier work

T1 sequence (P08183 whole entry): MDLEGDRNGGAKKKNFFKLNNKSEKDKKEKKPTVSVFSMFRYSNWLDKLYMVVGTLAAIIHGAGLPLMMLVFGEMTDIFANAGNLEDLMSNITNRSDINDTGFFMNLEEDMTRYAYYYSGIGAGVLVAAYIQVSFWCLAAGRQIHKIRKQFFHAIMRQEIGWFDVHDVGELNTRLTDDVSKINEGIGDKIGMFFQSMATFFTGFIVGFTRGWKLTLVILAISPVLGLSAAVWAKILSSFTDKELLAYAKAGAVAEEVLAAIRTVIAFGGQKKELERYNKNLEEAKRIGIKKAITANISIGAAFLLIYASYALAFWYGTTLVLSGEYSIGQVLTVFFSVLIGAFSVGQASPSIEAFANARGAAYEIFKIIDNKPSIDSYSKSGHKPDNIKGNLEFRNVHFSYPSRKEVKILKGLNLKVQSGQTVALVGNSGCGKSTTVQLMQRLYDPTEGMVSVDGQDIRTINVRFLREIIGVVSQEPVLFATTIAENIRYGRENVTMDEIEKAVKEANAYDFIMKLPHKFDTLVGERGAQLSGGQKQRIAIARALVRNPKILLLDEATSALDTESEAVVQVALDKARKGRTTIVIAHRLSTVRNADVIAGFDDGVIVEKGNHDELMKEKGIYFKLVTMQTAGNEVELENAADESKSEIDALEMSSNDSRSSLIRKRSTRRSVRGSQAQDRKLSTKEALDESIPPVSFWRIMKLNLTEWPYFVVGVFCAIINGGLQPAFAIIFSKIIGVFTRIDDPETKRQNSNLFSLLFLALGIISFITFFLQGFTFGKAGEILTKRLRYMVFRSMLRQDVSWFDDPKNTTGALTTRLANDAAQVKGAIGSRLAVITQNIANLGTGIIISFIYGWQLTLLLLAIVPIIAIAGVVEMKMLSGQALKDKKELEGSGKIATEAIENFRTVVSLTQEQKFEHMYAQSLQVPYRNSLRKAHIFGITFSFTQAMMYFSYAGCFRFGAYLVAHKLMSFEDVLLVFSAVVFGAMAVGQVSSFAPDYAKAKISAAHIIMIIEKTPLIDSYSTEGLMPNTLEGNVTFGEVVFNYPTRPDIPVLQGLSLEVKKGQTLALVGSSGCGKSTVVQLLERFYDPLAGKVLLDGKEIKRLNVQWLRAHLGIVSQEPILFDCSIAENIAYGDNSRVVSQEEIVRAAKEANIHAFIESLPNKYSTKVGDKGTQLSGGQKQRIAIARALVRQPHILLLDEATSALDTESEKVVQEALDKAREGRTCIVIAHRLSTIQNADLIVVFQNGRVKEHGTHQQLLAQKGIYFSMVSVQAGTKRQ

Row | Compound | median progression-free survival (PFS) (R/R DLBCL; GCB subjects, P=0.550) [weeks] | median progression-free survival (PFS) (R/R DLBCL; all subjects with R/R DLBCL, P=0.041) [weeks] | median progression-free survival (PFS) (R/R DLBCL; non-germinal-center B-cell-like (non-GCB) subjects, P=0.021) [weeks] | objective response rate (ORR) (R/R DLBCL; subjects with R/R DLBCL) [%] | maximum tolerated dose (MTD) [1] [mg] | decrease in area under the concentration-time curve [2] [%] | decrease in maximum plasma concentration (Cmax) [2] [%] | substrate of P-gp (P-gp [3]) | drug accumulation ([4]; multiple doses at the recommended dosage) | time post-dose at which maximum plasma concentrations occurred ([4]; single and multiple doses, subjects with MM or MDS, (approximately 0.5 to 6 hours)) [h] | PK interactions with P-gp substrates/inhibitors (P-gp [5]) | antitumor activity [6] | growth arrest of CD30+ cell lines (CD30+ cell lines)
1 | Nc1cccc2c1CN(C1CCC(=O)NC1=O)C2=O (racemic) [lenalidomide, (RS)-3-(4-Amino-1-oxo-1,3-dihydro-2H-isoindol-2-yl)piperidine-2,6-dione] | 10.1 | 13.6 | 15.1 | 27.5 | 20 | ~20 | ~50 | weak substrate | does not result in drug accumulation | 1 | does not have clinically significant PK interactions |  | 
2 | cAC10: chimeric IgG1 monoclonal antibody that specifically binds CD30 |  |  |  |  |  |  |  |  |  |  |  | pronounced antitumor activity | induces growth arrest
